# Results: patent US10766902B2, “Wee-1 inhibiting pyrazolopyrimidinone compounds” (ALMAC DISCOVERY LIMITED, priority 2016, dated 2020)
# pIC50: −log10 of the molar value.
# Molecular target: Wee-1 kinase (Homo sapiens (Human), UniProt P30291)
# Test: Measurement of Wee-1 kinase activity (ADP-Glo luminescence)
# Format: biochemical
# Details: read-out: Wee1 IC50
# Description: Method 1: Measurement of Wee-1 Kinase Activity
# In the measurement of Wee-1 activity, a commercial peptide Poly(Lys Tyr(4:1)) hydrobromide was purchased from Sigma Aldrich and used as the substrate. Activated Wee-1 kinase was purchased from Invitrogen (PV3817) and an ADP-Glo luminescent kit was purchased from Promega.
# All reactions took place in […] volumes in reaction buffer containing 40 mM Tris-HCl and 20 mM magnesium chloride, supplemented with 0.1 mg/mL bovine serum albumin and 2 mM DTT. Compounds were serially diluted in buffer and 5 μL of each concentration pipetted into a white 384 well plate (Sigma Aldrich M6186). A 5 μL aliquot of the Wee-1 enzyme was added to each well and the plate centrifuged for 1 min to ensure mixing of the enzyme and inhibitor.
# The plate was incubated at room temperature for 30 minutes before the addition of 2.0 μg/mL of substrate and 30 μM ATP in a 5 μL aliquot. The plate was centrifuged for one minute and incubated for 1 h at RT.
# 15 μL of ADP-Glo stop reagent was added to each well to quench the reaction and deplete unconverted ATP. The plate was incubated for a further 40 min in the dark at RT.
# 30 μL of ADP-Glo kinase detection reagent was added to each well, converting ADP to ATP, catalysing the generation of luciferin by luciferase. The plate was shaken for 1 min, and incubated in the dark for an additional hour.
# Luminescence from each well was detected using the Biotek Synergy4 HD plate reader and the percentage inhibition of kinase activity calculated for each inhibitor tested. Positive (kinase only) and negative (no kinase) controls were added to each plate to ensure specific interaction of kinase and inhibitor. The IC50 concentration for each inhibitor was calculated by plotting the percentage kinase inhibition against concentration of inhibitor and the curve generated by non-linear regression fitting.
# Wee-1 kinase, sequence (P30291 whole entry): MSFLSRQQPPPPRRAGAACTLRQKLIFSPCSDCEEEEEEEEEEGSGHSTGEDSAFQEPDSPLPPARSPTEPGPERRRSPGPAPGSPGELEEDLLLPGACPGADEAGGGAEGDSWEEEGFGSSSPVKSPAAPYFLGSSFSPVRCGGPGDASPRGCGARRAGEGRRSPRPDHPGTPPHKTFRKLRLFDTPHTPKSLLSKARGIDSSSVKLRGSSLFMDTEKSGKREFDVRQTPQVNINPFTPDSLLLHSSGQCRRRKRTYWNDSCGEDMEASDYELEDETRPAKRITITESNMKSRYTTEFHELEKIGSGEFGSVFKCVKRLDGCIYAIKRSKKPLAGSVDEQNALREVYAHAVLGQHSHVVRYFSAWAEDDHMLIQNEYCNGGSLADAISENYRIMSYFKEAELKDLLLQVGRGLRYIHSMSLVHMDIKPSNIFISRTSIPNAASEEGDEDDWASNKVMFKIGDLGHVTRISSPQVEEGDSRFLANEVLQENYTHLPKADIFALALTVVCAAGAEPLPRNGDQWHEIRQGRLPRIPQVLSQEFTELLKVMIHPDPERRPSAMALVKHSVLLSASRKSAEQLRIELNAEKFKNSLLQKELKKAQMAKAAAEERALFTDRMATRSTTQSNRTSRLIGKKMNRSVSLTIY
row,Compound,pIC50
1,"CCCn1c(=O)c2cnc(Nc3ccc(N4CCOCC4)cc3)nc2n1-c1cccc(N=S(C)(C)=O)n1 [Example 38, 1-(6-{[Dimethyl(oxo)-λ^6-sulfanylidene]amino}pyridin-2-yl)-6-{[4-(morpholin-4-yl)phenyl]amino}-2-propyl-1H,2H,3H-pyrazolo[3,4-d]pyrimidin-3-one]",9.10
2,"CCCn1c(=O)c2cnc(Nc3ccc(N4CCOCC4)nc3)nc2n1-c1cccc(N=S(C)(C)=O)n1 [Example 39, 1-(6-{[Dimethyl(oxo)-λ^6-sulfanylidene]amino}pyridin-2-yl)-6-{[6-(morpholin-4-yl)pyridin-3-yl]amino}-2-propyl-1H,2H,3H-pyrazolo[3,4-d]pyrimidin-3-one]",8.77
3,"C=CCn1c(=O)c2cnc(Nc3ccc(F)cc3)nc2n1-c1cccc(N=S(C)(C)=O)n1 [Example 40, 1-(6-{[Dimethyl(oxo)-λ^6-sulfanylidene]amino}pyridin-2-yl)-6-[(4-fluorophenyl)amino]-2-(prop-2-en-1-yl)-1H,2H,3H-pyrazolo[3,4-d]pyrimidin-3-one]",9.70
4,"C=CCn1c(=O)c2cnc(Nc3ccc(N4CCOCC4)cc3)nc2n1-c1cncc(N=S(C)(C)=O)c1 [Example 44, 1-(5-{[Dimethyl(oxo)-λ^6-sulfanylidene]amino}pyridin-3-yl)-6-{[4-(morpholin-4-yl)phenyl]amino}-2-(prop-2-en-1-yl)-1H,2H,3H-pyrazolo[3,4-d]pyrimidin-3-one]",7.69
5,"CC(C)n1c(=O)c2cnc(Nc3ccc(N4CCN(CC(F)(F)F)CC4)cc3)nc2n1-c1cccc(N=S(C)(C)=O)n1 [Example 50, 1-(6-{[Dimethyl(oxo)-λ^6-sulfanylidene]amino}pyridin-2-yl)-2-(propan-2-yl)-6-({4-[4-(2,2,2-trifluoroethyl)piperazin-1-yl]phenyl}amino)-1H,2H,3H-pyrazolo[3,4-d]pyrimidin-3-one]",9.40
6,"C=CCn1c(=O)c2cnc(Nc3ccc(N4CCOCC4)cc3)nc2n1-c1cncc(N=S(C)(C)=O)n1 [Example 51, 1-(6-{[Dimethyl(oxo)-λ^6-sulfanylidene]amino}pyrazin-2-yl)-6-{[4-(morpholin-4-yl)phenyl]amino}-2-(prop-2-en-1-yl)-1H,2H,3H-pyrazolo[3,4-d]pyrimidin-3-one]",9.22
7,"C=CCn1c(=O)c2cnc(Nc3ccc(N4CCOCC4)cc3)nc2n1-c1nccc(N=S(C)(C)=O)n1 [Example 52, 1-(4-{[Dimethyl(oxo)-λ^6-sulfanylidene]amino}pyrimidin-2-yl)-6-{[4-(morpholin-4-yl)phenyl]amino}-2-(prop-2-en-1-yl)-1H,2H,3H-pyrazolo[3,4-d]pyrimidin-3-one]",9.10
8,"COC[C@@H]1CN(c2ccc(Nc3ncc4c(=O)n(C(C)C)n(-c5cccc(N=S(C)(C)=O)n5)c4n3)cc2)CCO1 [Example 53, 1-(6-{[Dimethyl(oxo)-λ^6-sulfanylidene]amino}pyridin-2-yl)-6-({4-[(2S)-2-(methoxymethyl)morpholin-4-yl]phenyl}amino)-2-(propan-2-yl)-1H,2H,3H-pyrazolo[3,4-d]pyrimidin-3-one]",9.30
9,"CC(C)n1c(=O)c2cnc(N(c3ccc(C#N)cc3)c3ccc(C#N)cc3)nc2n1-c1cccc(N=S(C)(C)=O)n1 [Example 60, 4-[(4-Cyanophenyl)[1-(6-{[dimethyl(oxo)-λ^6-sulfanylidene]amino}pyridin-2-yl)-3-oxo-2-(propan-2-yl)-1H,2H,3H-pyrazolo[3,4-d]pyrimidin-6-yl]amino]benzonitrile]",6.12
10,"C=CCn1c(=O)c2cnc(Nc3ccc(Cl)cc3)nc2n1-c1cccc(N=S(C)(C)=O)n1 [Example 62, 6-[(4-Chlorophenyl)amino]-1-(6-{[dimethyl(oxo)-λ^6-sulfanylidene]amino}pyridin-2-yl)-2-(prop-2-en-1-yl)-1H,2H,3H-pyrazolo[3,4-d]pyrimidin-3-one]",9.52
11,"C=CCn1c(=O)c2cnc(NC34CC(C3)C4)nc2n1-c1cccc(N=S(C)(C)=O)n1 [Example 63, 6-({Bicyclo[1.1.1]pentan-1-yl}amino)-1-(6-{[dimethyl(oxo)-λ^6-sulfanylidene]amino}pyridin-2-yl)-2-(prop-2-en-1-yl)-1H,2H,3H-pyrazolo[3,4-d]pyrimidin-3-one]",6.00
12,"C=CCn1c(=O)c2cnc(Nc3ccc(C(C)(C)C)cc3)nc2n1-c1cccc(N=S(C)(C)=O)n1 [Example 64, 6-[(4-tert-Butylphenyl)amino]-1-(6-{[dimethyl(oxo)-λ^6-sulfanylidene]amino}pyridin-2-yl)-2-(prop-2-en-1-yl)-1H,2H,3H-pyrazolo[3,4-d]pyrimidin-3-one]",8.80

# More lines, now with the values ahead:
row,pIC50,Compound
1,8.31,"CC(C)n1c(=O)c2cnc(Nc3ccc(F)cc3)nc2n1-c1cccc(N=S(C)(C)=O)n1 [Example 41, 1-(6-{[Dimethyl(oxo)-λ^6-sulfanylidene]amino}pyridin-2-yl)-6-[(4-fluorophenyl)amino]-2-(propan-2-yl)-1H,2H,3H-pyrazolo[3,4-d]pyrimidin-3-one]"
2,8.96,"COc1ccc(Nc2ncc3c(=O)n(C(C)C)n(-c4cccc(N=S(C)(C)=O)n4)c3n2)cc1 [Example 42, 1-(6-{[Dimethyl(oxo)-λ^6-sulfanylidene]amino}pyridin-2-yl)-6-[(4-methoxyphenyl)amino]-2-(propan-2-yl)-1H,2H,3H-pyrazolo[3,4-d]pyrimidin-3-one]"
3,9.40,"CC(C)n1c(=O)c2cnc(Nc3ccc(N4CCOCC4)cc3)nc2n1-c1cccc(N=S(C)(C)=O)n1 [Example 43, 1-(6-{[Dimethyl(oxo)-λ^6-sulfanylidene]amino}pyridin-2-yl)-6-{[4-(morpholin-4-yl)phenyl]amino}-2-(propan-2-yl)-1H,2H,3H-pyrazolo[3,4-d]pyrimidin-3-one]"
4,9.05,"CC(C)n1c(=O)c2cnc(Nc3ccc(N4CCCNCC4)cc3)nc2n1-c1cccc(N=S(C)(C)=O)n1 [Example 46, 6-{[4-(1,4-Diazepan-1-yl)phenyl]amino}-1-(6-{[dimethyl(oxo)-λ^6-sulfanylidene]amino}pyridin-2-yl)-2-(propan-2-yl)-1H,2H,3H-pyrazolo[3,4-d]pyrimidin-3-one]"
5,7.17,"CC(C)n1c(=O)c2cnc(NC3CCC3)nc2n1-c1cccc(N=S(C)(C)=O)n1 [Example 47, 6-(Cyclobutylamino)-1-(6-{[dimethyl(oxo)-λ^6-sulfanylidene]amino}pyridin-2-yl)-2-(propan-2-yl)-1H,2H,3H-pyrazolo[3,4-d]pyrimidin-3-one]"
6,9.05,"CC(C)n1c(=O)c2cnc(Nc3ccc(N4CCNC(=O)C4)cc3)nc2n1-c1cccc(N=S(C)(C)=O)n1 [Example 48, 4-(4-{[1-(6-{[Dimethyl(oxo)-λ^6-sulfanylidene]amino}pyridin-2-yl)-3-oxo-2-(propan-2-yl)-1H,2H,3H-pyrazolo[3,4-d]pyrimidin-6-yl]amino}phenyl)piperazin-2-one]"
7,7.88,"CC(C)n1c(=O)c2cnc(Nc3ccc(F)cc3)nc2n1-c1cccc(N=S2(=O)CCCC2)n1 [Example 55, 6-[(4-Fluorophenyl)amino]-1-{6-[(1-oxo-1λ^6-thiolan-1-ylidene)amino]pyridin-2-yl}-2-(propan-2-yl)-1H,2H,3H-pyrazolo[3,4-d]pyrimidin-3-one]"
8,7.73,"CC(C)n1c(=O)c2cnc(Nc3cnn(C)c3)nc2n1-c1cccc(N=S2(=O)CCCC2)n1 [Example 56, 6-[(1-Methyl-1H-pyrazol-4-yl)amino]-1-{6-[(1-oxo-1λ^6-thiolan-1-ylidene)amino]pyridin-2-yl}-2-(propan-2-yl)-1H,2H,3H-pyrazolo[3,4-d]pyrimidin-3-one]"
9,9.40,"CC(C)n1c(=O)c2cnc(Nc3ccc(N(C)C)cc3)nc2n1-c1cccc(N=S(C)(C)=O)n1 [Example 58, 1-(6-{[Dimethyl(oxo)-λ^6-sulfanylidene]amino}pyridin-2-yl)-6-{[4-(dimethylamino)phenyl]amino}-2-(propan-2-yl)-1H,2H, 3H-pyrazolo[3,4-d]pyrimidin-3-one]"
10,8.92,"CC(C)n1c(=O)c2cnc(Nc3ccc(N4CCNCC4)cc3)nc2n1-c1cccc(N=S2(=O)CCCC2)n1 [Example 59, 1-{6-[(1-Oxo-1λ^6-thiolan-1-ylidene)amino]pyridin-2-yl}-6-{[4-(piperazin-1-yl)phenyl]amino}-2-(propan-2-yl)-1H,2H,3H-pyrazolo[3,4-d]pyrimidin-3-one]"
11,9.22,"CC(C)n1c(=O)c2cnc(Nc3ccc(Cl)cc3)nc2n1-c1cccc(N=S(C)(C)=O)n1 [Example 61, 6-[(4-Chlorophenyl)amino]-1-(6-{[dimethyl(oxo)-λ^6-sulfanylidene]amino}pyridin-2-yl)-2-(propan-2-yl)-1H,2H,3H-pyrazolo[3,4-d]pyrimidin-3-one]"
12,7.17,"CC(C)n1c(=O)c2cnc(Nc3ccc(F)cc3F)nc2n1-c1cccc(N=S(C)(C)=O)n1 [Example 65, 6-[(2,4-Difluorophenyl)amino]-1-(6-{[dimethyl(oxo)-λ^6-sulfanylidene]amino}pyridin-2-yl)-2-(propan-2-yl)-1H,2H,3H-pyrazolo[3,4-d]pyrimidin-3-one]"
